Tests used:
Experiment in all cases: relative viability (nuclei count vs DMSO), 5 days (fraction); higher = more cells survive
VX-11e + Decitabine = compound: CC1=CN=C(N=C1C2=CNC(=C2)C(=O)N[C@H](CO)C3=CC(=CC=C3)Cl)NC4=C(C=C(C=C4)F)Cl [VX-11e] + Nc1ncn([C@H]2C[C@H](O)[C@@H](CO)O2)c(=O)n1 [Decitabine] (partner 2 µM)
Method in brief: (§1)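 Relative viability equals treated-well nuclei counts divided by vehicle-well nuclei counts. Counts came from 4× images of lung cancer cell lines grown in 1536-well plates for 5 days after pin-tool dosing on the day after seeding. Dosing used one drug alone or a fixed anchor-drug dose plus five library-drug doses (not always all listed) in √10 steps, and values are medians of duplicate plates.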

VX-11e + Bortezomib = compound: CC1=CN=C(N=C1C2=CNC(=C2)C(=O)N[C@H](CO)C3=CC(=CC=C3)Cl)NC4=C(C=C(C=C4)F)Cl [VX-11e] + CC(C)C[C@H](NC(=O)[C@H](Cc1ccccc1)NC(=O)c1cnccn1)B(O)O [Bortezomib] (partner 0.002 µM)
Method in brief: as §1

VX-11e + Lapatinib = compound: CC1=CN=C(N=C1C2=CNC(=C2)C(=O)N[C@H](CO)C3=CC(=CC=C3)Cl)NC4=C(C=C(C=C4)F)Cl [VX-11e] + CS(=O)(=O)CCNCc1ccc(-c2ccc3ncnc(Nc4ccc(OCc5cccc(F)c5)c(Cl)c4)c3c2)o1 [Lapatinib] (partner 2 µM)
Method in brief: as §1

VX-11e + AZD7762 = compound: CC1=CN=C(N=C1C2=CNC(=C2)C(=O)N[C@H](CO)C3=CC(=CC=C3)Cl)NC4=C(C=C(C=C4)F)Cl [VX-11e] + NC(=O)Nc1cc(-c2cccc(F)c2)sc1C(=O)N[C@H]1CCCNC1 [AZD7762] (partner 0.2 µM)
Method in brief: as §1

Cell Line	relative viability (VX-11e + Decitabine; first compound 0.04 µM)	relative viability (VX-11e + Decitabine; first compound 0.1265 µM)	relative viability (VX-11e + Decitabine; first compound 1.265 µM)	relative viability (VX-11e + Decitabine; first compound 4 µM)	relative viability (VX-11e + Bortezomib; first compound 0.04 µM)	relative viability (VX-11e + Bortezomib; first compound 0.1265 µM)	relative viability (VX-11e + Bortezomib; first compound 1.265 µM)	relative viability (VX-11e + Bortezomib; first compound 4 µM)	relative viability (VX-11e + Lapatinib; first compound 0.04 µM)	relative viability (VX-11e + Lapatinib; first compound 0.1265 µM)	relative viability (VX-11e + Lapatinib; first compound 1.265 µM)	relative viability (VX-11e + Lapatinib; first compound 4 µM)	relative viability (VX-11e + AZD7762; first compound 0.04 µM)	relative viability (VX-11e + AZD7762; first compound 0.1265 µM)	relative viability (VX-11e + AZD7762; first compound 1.265 µM)	relative viability (VX-11e + AZD7762; first compound 4 µM)	relative viability (VX-11e + Decitabine; first compound 0.4 µM)	relative viability (VX-11e + Bortezomib; first compound 0.4 µM)	relative viability (VX-11e + Lapatinib; first compound 0.4 µM)	relative viability (VX-11e + AZD7762; first compound 0.4 µM)
HCC-366	0.402	0.348	0.322	0.217	0.959	0.895	0.864	0.759	1	0.971	0.879	0.759	0.429	0.235	0.21	0.16				
HCC-827	0.266	0.32	0.431	0.324	1.11	1.1	1.2	1.02	0.191	0.229	0.205	0.207	0.162	0.222	0.349	0.21	0.342	1.09	0.206	0.212
HOP-62	0.223	0.239	0.248	0.312	0.688	0.963	0.214	0.515	1.14	0.979	0.27	0.526	0.486	0.644	0.315	0.166	0.213	0.553	0.776	0.234
LC-2-ad	0.798	0.776	0.872	0.654	1.13	0.962	0.403	0.841	0.929	0.792	0.399	0.547	0.913	0.844	0.458	0.468	0.703	0.894	0.881	0.798
LCLC-97TM1	0.259	0.209		0.171	0.591	0.675	0.339	0.107	1.09	0.8	0.226	0.171	0.259	0.172	0.175	0.14	0.221	0.943		0.23
LOU-NH91	0.829	0.777	0.85	0.768	0.494	0.502	0.486	0.457	0.66	0.673	0.565	0.667	0.746	0.805	0.8	0.725				
LU99A	0.872	0.81	0.727	0.347	0.965	0.984	0.284	0.239	1.03	0.913	0.253	0.235	0.244	0.37	0.18	0.195	0.822	0.769	0.864	0.142
LXF-289	0.364	0.376	0.386	0.406	1.07	0.96	0.734	0.665	0.895	0.869	0.772	0.634	1.15	1.12	0.805	0.686		0.764	0.879	
NCI-H23	0.279	0.312	0.284	0.22	0.911	0.81	0.935	0.367	0.875	0.952	0.393	0.331	0.208	0.231	0.176	0.119	0.306	0.25	0.219	0.167
NCI-H322M	0.737	0.723	0.607	0.614	1.08		1.09	0.987	0.581		0.436	0.456	0.469	0.726	0.514	0.448	0.683	1.24	0.674	0.506
NCI-H460	0.568	0.43	0.472	0.184	1.15	0.986	0.648	0.102	1.13	0.85	0.542	0.0703	0.561	0.54	0.646	0.378	0.165	0.91	0.823	
NCI-H596	0.864	1.05	0.998	0.834	0.953	1	0.645	0.715	1.2	0.938	0.917	0.774	1.03	0.895	0.748	0.778	1.01	0.989	0.933	1.01
NCI-H647	0.378	0.355	0.537	0.449	0.892	0.964	0.491	0.477	0.863	0.902	0.476	0.353	0.347	0.573	0.426	0.215	0.349	0.584	0.546	
NCI-H650	0.386	0.312	0.403	0.371		0.692		0.87		0.894		0.909	1.08	0.935	0.994	0.553	0.325	1.23	0.944	0.964
NCI-H727	0.599	1.07	0.638	0.421	0.686	0.68	0.513	0.29	0.699	0.591	0.501	0.307	0.519	0.616	0.476	0.385	0.72	0.519	1.19	0.652
NCI-H838	0.44	0.428	0.474	0.524	0.985	0.703	0.527	0.515	0.856	0.92	0.701	0.627	0.784	0.962	0.977	0.834	0.447	0.608	0.396	0.728
NCI-H1355	0.401	0.376	0.413	0.31	1.01	1.17	1.11	0.763	0.613	0.948	0.728	0.48	0.757	0.695	0.615	0.368	0.34	0.614	0.879	0.45

Cell Line	relative viability (VX-11e + Decitabine; first compound 0.04 µM)	relative viability (VX-11e + Decitabine; first compound 0.1265 µM)	relative viability (VX-11e + Decitabine; first compound 1.265 µM)	relative viability (VX-11e + Decitabine; first compound 4 µM)	relative viability (VX-11e + Bortezomib; first compound 0.04 µM)	relative viability (VX-11e + Bortezomib; first compound 0.1265 µM)	relative viability (VX-11e + Bortezomib; first compound 1.265 µM)	relative viability (VX-11e + Bortezomib; first compound 4 µM)	relative viability (VX-11e + Lapatinib; first compound 0.04 µM)	relative viability (VX-11e + Lapatinib; first compound 0.1265 µM)	relative viability (VX-11e + Lapatinib; first compound 1.265 µM)	relative viability (VX-11e + Lapatinib; first compound 4 µM)	relative viability (VX-11e + AZD7762; first compound 0.04 µM)	relative viability (VX-11e + AZD7762; first compound 0.1265 µM)	relative viability (VX-11e + AZD7762; first compound 1.265 µM)	relative viability (VX-11e + AZD7762; first compound 4 µM)	relative viability (VX-11e + Decitabine; first compound 0.4 µM)	relative viability (VX-11e + Bortezomib; first compound 0.4 µM)	relative viability (VX-11e + Lapatinib; first compound 0.4 µM)	relative viability (VX-11e + AZD7762; first compound 0.4 µM)
NCI-H1437	0.589	0.519	0.602	0.494	0.597	0.316	0.312	0.202	0.755	0.754	0.291	0.228	1.11	1.09	0.972	0.741	0.517	0.306	0.35	0.867
NCI-H1651	0.445	0.633	0.497	0.59	0.946	0.879	0.922	0.871	0.639	0.747	0.602	0.654	0.331	0.399	0.47	0.377	0.541	0.921	0.634	0.464
NCI-H1666	0.636	0.769	0.671	0.598	0.877	0.862	0.678	0.505	0.713	0.99	0.43	0.388	0.803	0.832	0.732	0.699	0.541	0.627	0.467	0.715
NCI-H1734	0.482	0.523	0.538	0.368	0.965	0.826	0.513	0.365	0.808	1.05	0.805	0.46	0.525	0.532	0.334	0.296	0.428	0.726	0.745	0.307
NCI-H1755	0.7	0.736	0.716	0.661	0.965	0.931	0.923	0.608	1.05	0.97	0.93	0.771	0.434	0.333	0.513	0.359	0.665	0.884	0.833	0.341
NCI-H1792		0.493	0.619	0.328	1.01	0.912	0.876	0.686	0.889	0.91	0.86	0.755		0.623	0.413	0.0597		0.94	1	
NCI-H1915	0.246	0.264	0.264	0.238	1.02	0.923	0.939	0.757	0.981	0.92	0.976	0.808	0.719	0.719	0.791	0.554	0.25	1.03	0.984	0.596
NCI-H1975	0.42	0.388	0.364	0.226	0.475	0.372	0.281	0.178	0.925	0.862	0.811	0.342	0.657	0.721	0.57	0.378	0.336	0.301	0.665	0.562
NCI-H1993		0.644	0.659	0.509		1.04	0.742	0.765		0.818	0.73	0.727		0.884	0.453	0.48	0.674			0.687
NCI-H2085	0.658	0.542	0.539	0.553	1.04	0.979	0.898	0.825	0.596	0.765	0.647	0.608	0.853	0.975	0.887	0.642	0.525	1.03	0.73	0.829
NCI-H2087	0.318	0.295	0.182	0.158	0.863	0.639	0.921	0.287	1.23	0.867	0.979	0.295	1.51	1.37	1.24	0.583		0.582	0.42	
NCI-H2126	0.561	0.608	0.614	0.573		1.06	1.14	1.02		0.752	0.742	0.599	0.844	0.972	1.01	0.861	0.558	1.01	0.752	0.795
NCI-H2347	0.604	0.554	0.534	0.661	0.87	0.801	0.738	0.435	1.05	0.878	0.809	0.453	0.834	0.722	0.501	0.375	0.504	0.815	0.809	0.551
NCI-H2405	0.761	0.733	0.776	0.443	1.04	0.953	0.952	0.601	1.07	1.01	1.05	0.349	0.835	0.729	0.671	0.412	0.305	0.988		0.625
NCI-H3122	0.418	0.484	0.39	0.209	1.11	1.03	0.832	0.676	1.07	0.98	0.892	0.626	1.13	1.13	0.933	0.577	0.335	0.743	0.855	0.353
PC-3 [JPC-3]	0.839	0.813	0.788	0.705	0.91	0.828	0.993	0.719	0.384	0.485	0.453	0.445	0.697	0.653	0.701	0.711	0.809	0.803	0.436	0.685

Reference: the supplement of paper PMC10307832
